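Five compound concentrations were applied to cells in 96-well plates for 48 hours; endpoints were derived by simple linear interpolation of the resulting dose-response curve. GI50 marks 50% less growth. TGI is the concentration that stops growth completely.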
Legend:
Assay in all cases: NCI anticancer screen, dose series, 48 h
OVCAR-5 ovarian = tested on: OVCAR-5 ovarian
MOLT-4 leukemia = tested on: MOLT-4 leukemia
ACHN renal = tested on: ACHN renal
OVCAR-3 ovarian = tested on: OVCAR-3 ovarian
SK-MEL-28 melanoma = tested on: SK-MEL-28 melanoma
NCI-H460 lung = tested on: NCI-H460 lung
T-47D breast = tested on: T-47D breast
BT-549 breast = tested on: BT-549 breast
NCI-H23 lung = tested on: NCI-H23 lung
CAKI-1 renal = tested on: CAKI-1 renal
PC-3 prostate = tested on: PC-3 prostate
UO-31 renal = tested on: UO-31 renal
SNB-75 CNS = tested on: SNB-75 CNS
A498 renal = tested on: A498 renal
SF-295 CNS = tested on: SF-295 CNS
TK-10 renal = tested on: TK-10 renal
SK-MEL-2 melanoma = tested on: SK-MEL-2 melanoma
HOP-92 NSCLC = tested on: HOP-92 NSCLC
OVCAR-8 ovarian = tested on: OVCAR-8 ovarian
HL-60(TB) leukemia = tested on: HL-60(TB) leukemia
IGROV1 ovarian = tested on: IGROV1 ovarian
SF-539 CNS = tested on: SF-539 CNS
SN12C renal = tested on: SN12C renal
HCC-2998 colon = tested on: HCC-2998 colon
DU-145 prostate = tested on: DU-145 prostate
SK-OV-3 ovarian = tested on: SK-OV-3 ovarian
786-0 renal = tested on: 786-0 renal
SR leukemia = tested on: SR leukemia
OVCAR-4 ovarian = tested on: OVCAR-4 ovarian

## O=C(O)c1ccc(-c2ccc(/C=N/NC(=O)c3[nH]c4ccc(Br)cc4c3-c3ccccc3)o2)cc1
OVCAR-5 ovarian
  GI50: 36.5 µM
  TGI: > 100 µM
MOLT-4 leukemia
  GI50: 20.3 µM
  TGI: 96.6 µM
ACHN renal
  GI50: 29.3 µM
  TGI: > 100 µM
OVCAR-3 ovarian
  GI50: 12.2 µM
  TGI: 43.1 µM
SK-MEL-28 melanoma
  GI50: 15.8 µM
  TGI: > 100 µM
NCI-H460 lung
  GI50: 21.3 µM
  TGI: 72.8 µM
T-47D breast
  GI50: 30.9 µM
  TGI: > 100 µM
BT-549 breast
  GI50: 20.1 µM
  TGI: 51.7 µM
NCI-H23 lung
  GI50: 34.1 µM
  TGI: > 100 µM
CAKI-1 renal
  GI50: 22 µM
  TGI: 98.7 µM
PC-3 prostate
  GI50: 25.1 µM
  TGI: > 100 µM
UO-31 renal
  GI50: 25 µM
  TGI: > 100 µM
SNB-75 CNS
  GI50: 4.02 µM
  TGI: 33.3 µM
A498 renal
  GI50: 23.6 µM
  TGI: 85.7 µM
SF-295 CNS
  GI50: 20.4 µM
  TGI: 55.8 µM
TK-10 renal
  GI50: 38.7 µM
  TGI: > 100 µM
SK-MEL-2 melanoma
  GI50: 14.6 µM
  TGI: 37.3 µM
HOP-92 NSCLC
  GI50: 10.6 µM
  TGI: 42.2 µM
OVCAR-8 ovarian
  GI50: 20.7 µM
  TGI: 63.4 µM
HL-60(TB) leukemia
  GI50: 12.4 µM
  TGI: 36.1 µM
IGROV1 ovarian
  GI50: 25.3 µM
  TGI: 86.1 µM
SF-539 CNS
  GI50: 14.7 µM
  TGI: 36.7 µM
SN12C renal
  GI50: 24.8 µM
  TGI: 80.8 µM
HCC-2998 colon
  GI50: 16.1 µM
  TGI: 30.7 µM
DU-145 prostate
  GI50: 36.4 µM
  TGI: > 100 µM
SK-OV-3 ovarian
  GI50: 28.3 µM
  TGI: 76.7 µM
786-0 renal
  GI50: 24.2 µM
  TGI: > 100 µM
SR leukemia
  GI50: 11.8 µM
  TGI: 45.6 µM
OVCAR-4 ovarian
  GI50: 21.1 µM
  TGI: > 100 µM
